Reference: ChEMBL document CHEMBL1201862, “PubChem BioAssay data set” (2004)
Active and inactive are the calls of the source.

Key:
Cysteine protease ATG4B = target: T1, Cysteine protease ATG4B (Homo sapiens, UniProt Q9Y4P1); assay type: functional;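 note: Fluorescence-based dose-response confirmation assay measuring inhibition of ATG4B activity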
T1 sequence (Q9Y4P1 whole entry): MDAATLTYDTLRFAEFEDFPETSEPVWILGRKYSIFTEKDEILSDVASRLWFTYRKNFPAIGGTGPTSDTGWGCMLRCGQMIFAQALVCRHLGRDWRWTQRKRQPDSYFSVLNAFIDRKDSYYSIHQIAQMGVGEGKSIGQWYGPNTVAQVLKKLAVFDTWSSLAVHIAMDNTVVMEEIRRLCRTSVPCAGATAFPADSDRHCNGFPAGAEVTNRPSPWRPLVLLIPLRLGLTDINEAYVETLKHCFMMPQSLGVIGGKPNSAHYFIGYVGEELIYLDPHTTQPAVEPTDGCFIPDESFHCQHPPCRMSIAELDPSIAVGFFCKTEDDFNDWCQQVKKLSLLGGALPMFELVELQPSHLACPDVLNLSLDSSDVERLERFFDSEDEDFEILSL

Phospholipase A2 = Phospholipase A2 (Homo sapiens, UniProt P04054); assay type: functional;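 note: confirmatory dose-response counterscreen on phospholipase A2, testing hits that came from an ultra-high-throughput screen for ATG4B inhibitors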
Cytochrome P450 2C9 = Cytochrome P450 2C9 (Homo sapiens, UniProt P11712)
Cytochrome P450 2D6 = Cytochrome P450 2D6 (Homo sapiens, UniProt P10635);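 note: CYP2D6 member of a cytochrome P450 panel assay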
[1] = control 3'UTR Renilla luciferase suppression, dose response, counter-screen for Shn3 inhibitor project, cell-based, Clone20-Shn3RL, cherry-picked (AID 624133); assay type: functional
[2] = Shn3 3'UTR reporter inhibitors, dose response, cell-based, Clone20 osteoblasts, firefly luciferase, cherry-picked (AID 624132); assay type: functional;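 note: firefly luciferase luminescence from reporter carrying the Shn3 3'UTR in osteoblasts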
[3] = HepG2 cell cytotoxicity, dose response, cytotoxicity control for Shn3 inhibitor project, CellTiter-Glo, cherry-picked (AID 624134); assay type: functional, cell-based
[4] = target: T2, Replicative DNA helicase DnaB (Mycobacterium tuberculosis, UniProt P9WMR3); assay: DnaB intein splicing inhibitors, dose response, biochemical, cell-free fluorescence (AID 449749); assay type: functional
T2 sequence (P9WMR3 whole entry): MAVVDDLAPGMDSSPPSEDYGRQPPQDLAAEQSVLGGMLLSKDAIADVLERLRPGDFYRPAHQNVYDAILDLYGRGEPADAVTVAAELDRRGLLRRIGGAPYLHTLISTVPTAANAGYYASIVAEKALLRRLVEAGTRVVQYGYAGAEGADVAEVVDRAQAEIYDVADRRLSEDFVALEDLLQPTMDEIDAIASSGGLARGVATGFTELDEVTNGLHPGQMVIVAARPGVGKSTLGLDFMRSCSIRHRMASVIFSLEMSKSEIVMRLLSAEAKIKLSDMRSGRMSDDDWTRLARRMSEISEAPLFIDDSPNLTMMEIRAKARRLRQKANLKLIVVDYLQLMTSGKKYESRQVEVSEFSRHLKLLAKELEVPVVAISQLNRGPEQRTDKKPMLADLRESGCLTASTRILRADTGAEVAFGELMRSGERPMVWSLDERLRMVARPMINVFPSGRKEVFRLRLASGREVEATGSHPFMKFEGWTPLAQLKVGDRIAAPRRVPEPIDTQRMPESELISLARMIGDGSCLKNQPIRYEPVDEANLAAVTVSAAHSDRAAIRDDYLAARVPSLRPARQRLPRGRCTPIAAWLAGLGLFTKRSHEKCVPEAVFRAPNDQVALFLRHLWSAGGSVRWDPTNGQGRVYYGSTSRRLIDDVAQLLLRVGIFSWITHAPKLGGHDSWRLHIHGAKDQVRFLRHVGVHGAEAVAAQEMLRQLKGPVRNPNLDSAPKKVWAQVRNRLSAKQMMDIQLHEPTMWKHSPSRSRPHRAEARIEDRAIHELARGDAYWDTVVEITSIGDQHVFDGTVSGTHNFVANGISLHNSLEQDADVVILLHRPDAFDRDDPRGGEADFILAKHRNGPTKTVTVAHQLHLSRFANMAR

Protein RecA = target: T3, Protein RecA (Mycobacterium tuberculosis, UniProt P9WHJ3); assay: Fluorescence Cell-Free Homogeneous Dose Retest to Identify Inhibitors of RecA-Intein Splicing Activity. [Related pubchem assays (depositor defined):AID2097, AID2223, AID489010, AID492950]; assay type: functional
T3 sequence (P9WHJ3 whole entry): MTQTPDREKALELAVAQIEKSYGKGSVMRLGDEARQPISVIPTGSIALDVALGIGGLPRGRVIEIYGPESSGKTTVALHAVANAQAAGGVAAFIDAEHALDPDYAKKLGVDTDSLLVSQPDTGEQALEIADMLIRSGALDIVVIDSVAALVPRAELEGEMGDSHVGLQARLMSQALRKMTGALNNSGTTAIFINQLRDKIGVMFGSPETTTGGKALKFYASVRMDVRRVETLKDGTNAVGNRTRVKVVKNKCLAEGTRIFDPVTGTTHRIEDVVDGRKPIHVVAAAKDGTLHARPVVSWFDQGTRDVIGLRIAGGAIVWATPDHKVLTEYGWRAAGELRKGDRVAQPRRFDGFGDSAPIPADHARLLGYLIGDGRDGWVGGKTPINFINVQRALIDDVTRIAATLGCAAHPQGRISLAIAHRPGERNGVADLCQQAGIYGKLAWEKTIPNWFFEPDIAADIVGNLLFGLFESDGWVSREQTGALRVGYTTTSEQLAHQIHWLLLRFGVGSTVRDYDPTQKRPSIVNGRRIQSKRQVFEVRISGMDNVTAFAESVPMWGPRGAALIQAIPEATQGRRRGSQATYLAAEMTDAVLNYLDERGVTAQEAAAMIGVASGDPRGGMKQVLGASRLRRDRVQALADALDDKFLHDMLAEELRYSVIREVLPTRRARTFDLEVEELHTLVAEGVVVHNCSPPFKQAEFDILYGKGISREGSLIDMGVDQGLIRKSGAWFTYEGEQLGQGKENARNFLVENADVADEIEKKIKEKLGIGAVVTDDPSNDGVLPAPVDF

[5] = growth suppression of PTEN-null colon cells, dose response, cell-based, HCT116 PTEN knockout (AID 1047); assay type: functional;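 note: HCT116 colon tumor cells with PTEN knocked out; cells exposed to compound for 60 hours before readout; potency for loss of cell viability measured by luminescence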
[6] = growth suppression of beta-catenin-knockout colon cells, dose response, cell-based, HCT116, human colon tumor (AID 1045); assay type: functional;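 note: HCT116 colon tumor cells with beta catenin knocked out; cells exposed to compound for 60 hours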
Paired box protein Pax-8 = Paired box protein Pax-8 (Homo sapiens, UniProt Q06710); assay: inhibitors of PAX8-driven TPO luciferase reporter, dose response, RMG-I cells, cherry-pick (AID 687027); assay type: functional, cell-based;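 note: luciferase reporter driven by Pax8 target thyroperoxidase promoter measured by SteadyGlo luminescence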
[7] = microbe, parasite or virus in culture; assay type: functional; details: Mycobacterium tuberculosis
Large T antigen = Large T antigen (Simian virus 40, UniProt P03070); assay type: functional, Betapolyomavirus macacae;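 note: Confirmatory-stage PubChem screen for compounds that inhibit SV40 T antigen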
[8] = target: Glyceraldehyde-3-phosphate dehydrogenase (Homo sapiens, UniProt P04406)
Vero = assay: cells; assay type: functional; details: Chlorocebus sabaeus
[9] = target: FAD-linked sulfhydryl oxidase ALR (Homo sapiens, UniProt P55789); assay: inhibitors of human ALR sulfhydryl oxidase, dose response, biochemical, H2O2 detection, luminescence, cherry-pick (AID 493248)
Fatty acid synthase [10] = target: T4, Fatty acid synthase (Homo sapiens, UniProt P49327); assay: FAS thioesterase domain inhibitors, dose response, biochemical, endpoint fluorescence intensity, uHTS hits (AID 624327); assay type: functional;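 note: fluorescence from hydrolysis of an O-methyl fluorescein acyl ester substrate by the enzyme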
Fatty acid synthase [11] = target: T4, Fatty acid synthase; assay: FAS thioesterase domain inhibitors, dose response, biochemical, kinetic fluorescence intensity (AID 624326); assay type: functional;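 note: rate of fluorescence rise from hydrolysis of a fluorogenic O-methyl fluorescein ester substrate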
[12] = inhibitors of intracellular T. cruzi replication, confirmation, NIH3T3 host cells, beta-gal luminescence (AID 2044); assay type: functional, cell-based;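 note: intracellular parasites grown in NIH/3T3 mouse fibroblasts as host cells; luminescent beta-galactosidase reporter signal from transgenic T. cruzi replicating inside host cells; inhibitors lower the luminescence signal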
[13] = cytotoxicity toward NIH3T3 fibroblasts, dose response, counter-screen, cell-based, ATP luminescence, mouse fibroblasts (AID 2010); assay type: functional;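 note: cells exposed to compound for about 90 hours before reading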
[14] = target: T5, Polyadenylate-binding protein 1 (Homo sapiens, UniProt P11940); assay: PABP1 MLLE–PAM2 interaction inhibitors, dose response, miRNA deadenylation inhibitor project, biochemical, fluorescence polarization, Cy5-PAM2 peptide, secondary (AID 602260); assay type: functional; details: read-out: IC50_Mean
[15] = target: T5, Polyadenylate-binding protein 1; assay: PABP1 MLLE–PAM2 binding inhibitor potency, dose response, biochemical, fluorescence polarization, FITC-PAM2 peptide (AID 602259); assay type: functional; details: read-out: IC50_Mean

Chain of Cytochrome P450 2D6 (P10635 whole entry): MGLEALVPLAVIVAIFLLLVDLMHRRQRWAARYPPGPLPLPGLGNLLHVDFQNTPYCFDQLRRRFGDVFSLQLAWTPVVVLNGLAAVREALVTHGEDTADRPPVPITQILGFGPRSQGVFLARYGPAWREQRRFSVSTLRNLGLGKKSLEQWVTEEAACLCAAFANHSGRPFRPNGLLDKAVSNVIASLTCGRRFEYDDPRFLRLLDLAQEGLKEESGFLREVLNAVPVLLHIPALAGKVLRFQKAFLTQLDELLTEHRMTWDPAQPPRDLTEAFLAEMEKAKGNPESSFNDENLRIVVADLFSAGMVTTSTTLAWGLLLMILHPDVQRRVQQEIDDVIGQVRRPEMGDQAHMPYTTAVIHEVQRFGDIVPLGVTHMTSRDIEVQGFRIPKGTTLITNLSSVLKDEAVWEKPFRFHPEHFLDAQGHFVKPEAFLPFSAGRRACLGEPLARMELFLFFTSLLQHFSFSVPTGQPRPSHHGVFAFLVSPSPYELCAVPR
T4 sequence (P49327 whole entry, the tested form may be a part): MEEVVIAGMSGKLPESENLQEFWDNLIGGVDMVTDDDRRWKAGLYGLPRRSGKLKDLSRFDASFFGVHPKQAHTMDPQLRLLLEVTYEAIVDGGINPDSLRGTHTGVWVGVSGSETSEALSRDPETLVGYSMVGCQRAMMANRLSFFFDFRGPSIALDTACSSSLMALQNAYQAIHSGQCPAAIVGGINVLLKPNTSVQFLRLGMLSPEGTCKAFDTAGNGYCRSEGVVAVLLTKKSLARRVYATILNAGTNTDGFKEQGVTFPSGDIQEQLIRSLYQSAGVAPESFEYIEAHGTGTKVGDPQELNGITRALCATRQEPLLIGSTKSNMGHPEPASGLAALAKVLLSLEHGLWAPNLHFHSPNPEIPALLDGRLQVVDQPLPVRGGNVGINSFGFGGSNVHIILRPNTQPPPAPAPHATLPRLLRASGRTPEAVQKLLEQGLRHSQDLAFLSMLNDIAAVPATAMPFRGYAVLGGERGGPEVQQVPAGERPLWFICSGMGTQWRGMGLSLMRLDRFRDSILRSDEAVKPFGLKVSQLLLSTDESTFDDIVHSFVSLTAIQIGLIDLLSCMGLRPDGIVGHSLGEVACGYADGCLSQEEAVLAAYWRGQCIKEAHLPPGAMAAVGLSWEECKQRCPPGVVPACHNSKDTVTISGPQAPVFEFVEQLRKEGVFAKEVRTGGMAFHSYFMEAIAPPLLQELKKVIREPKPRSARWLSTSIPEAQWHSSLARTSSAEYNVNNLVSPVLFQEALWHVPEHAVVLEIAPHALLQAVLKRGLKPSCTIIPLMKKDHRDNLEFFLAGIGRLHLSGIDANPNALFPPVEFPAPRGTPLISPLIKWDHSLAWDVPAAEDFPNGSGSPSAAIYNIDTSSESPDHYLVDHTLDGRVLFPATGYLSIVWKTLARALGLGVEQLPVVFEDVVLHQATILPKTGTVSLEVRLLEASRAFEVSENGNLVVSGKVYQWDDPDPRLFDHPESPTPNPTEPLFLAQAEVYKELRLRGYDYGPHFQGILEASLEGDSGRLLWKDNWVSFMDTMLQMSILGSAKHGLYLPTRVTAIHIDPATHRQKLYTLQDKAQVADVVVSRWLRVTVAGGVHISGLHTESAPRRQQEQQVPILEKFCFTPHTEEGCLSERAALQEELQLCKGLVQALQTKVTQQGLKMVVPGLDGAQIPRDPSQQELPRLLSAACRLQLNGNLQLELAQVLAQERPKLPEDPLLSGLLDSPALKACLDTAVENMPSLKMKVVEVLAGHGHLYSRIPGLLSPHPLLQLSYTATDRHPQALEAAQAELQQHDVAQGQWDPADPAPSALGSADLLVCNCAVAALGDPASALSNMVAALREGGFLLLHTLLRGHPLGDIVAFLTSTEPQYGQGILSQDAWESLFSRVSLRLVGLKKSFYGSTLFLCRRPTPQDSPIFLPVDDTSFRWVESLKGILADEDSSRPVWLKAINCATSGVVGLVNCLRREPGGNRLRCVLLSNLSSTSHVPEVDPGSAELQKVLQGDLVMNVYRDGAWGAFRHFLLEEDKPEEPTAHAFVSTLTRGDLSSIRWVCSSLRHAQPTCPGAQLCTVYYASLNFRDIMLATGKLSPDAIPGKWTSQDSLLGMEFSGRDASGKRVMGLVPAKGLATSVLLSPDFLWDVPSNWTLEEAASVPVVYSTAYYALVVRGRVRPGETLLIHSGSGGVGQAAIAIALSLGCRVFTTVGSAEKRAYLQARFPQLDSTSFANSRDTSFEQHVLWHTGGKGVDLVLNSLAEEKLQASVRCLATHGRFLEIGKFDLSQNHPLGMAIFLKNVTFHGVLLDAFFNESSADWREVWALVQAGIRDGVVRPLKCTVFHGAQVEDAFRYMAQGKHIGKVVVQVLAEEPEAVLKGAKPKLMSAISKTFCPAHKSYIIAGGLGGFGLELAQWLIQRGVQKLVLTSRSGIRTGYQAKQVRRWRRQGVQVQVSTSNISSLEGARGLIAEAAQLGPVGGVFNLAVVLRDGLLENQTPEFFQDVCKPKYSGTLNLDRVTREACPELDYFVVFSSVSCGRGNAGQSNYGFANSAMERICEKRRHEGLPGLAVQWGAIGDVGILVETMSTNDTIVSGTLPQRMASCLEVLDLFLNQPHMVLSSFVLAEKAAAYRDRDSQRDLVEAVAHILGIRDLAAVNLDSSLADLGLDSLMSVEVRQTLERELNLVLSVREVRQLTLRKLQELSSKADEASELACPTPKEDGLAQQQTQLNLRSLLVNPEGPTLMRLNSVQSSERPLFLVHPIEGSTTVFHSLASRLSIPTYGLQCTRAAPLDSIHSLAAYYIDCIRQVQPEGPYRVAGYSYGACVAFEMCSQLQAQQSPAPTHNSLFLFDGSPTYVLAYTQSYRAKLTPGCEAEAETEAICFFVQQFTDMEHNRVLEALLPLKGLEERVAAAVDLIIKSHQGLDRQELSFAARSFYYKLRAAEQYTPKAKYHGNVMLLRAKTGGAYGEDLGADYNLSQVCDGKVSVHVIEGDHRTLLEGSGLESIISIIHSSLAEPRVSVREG
Chain of Cytochrome P450 2C9 (P11712 whole entry): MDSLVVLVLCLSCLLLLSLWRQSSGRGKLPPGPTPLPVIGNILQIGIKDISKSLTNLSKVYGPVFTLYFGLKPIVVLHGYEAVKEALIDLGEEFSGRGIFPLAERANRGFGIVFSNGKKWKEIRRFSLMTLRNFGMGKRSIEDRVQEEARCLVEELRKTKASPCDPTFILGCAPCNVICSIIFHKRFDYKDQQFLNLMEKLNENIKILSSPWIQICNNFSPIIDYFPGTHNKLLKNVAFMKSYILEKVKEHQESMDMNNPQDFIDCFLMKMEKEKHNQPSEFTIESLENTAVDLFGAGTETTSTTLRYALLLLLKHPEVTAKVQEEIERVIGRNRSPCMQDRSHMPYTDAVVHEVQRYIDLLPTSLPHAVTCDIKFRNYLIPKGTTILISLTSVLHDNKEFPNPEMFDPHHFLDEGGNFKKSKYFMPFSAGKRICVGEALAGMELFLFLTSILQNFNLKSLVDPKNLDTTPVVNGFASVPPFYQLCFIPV
Chain of Large T antigen (P03070 whole entry): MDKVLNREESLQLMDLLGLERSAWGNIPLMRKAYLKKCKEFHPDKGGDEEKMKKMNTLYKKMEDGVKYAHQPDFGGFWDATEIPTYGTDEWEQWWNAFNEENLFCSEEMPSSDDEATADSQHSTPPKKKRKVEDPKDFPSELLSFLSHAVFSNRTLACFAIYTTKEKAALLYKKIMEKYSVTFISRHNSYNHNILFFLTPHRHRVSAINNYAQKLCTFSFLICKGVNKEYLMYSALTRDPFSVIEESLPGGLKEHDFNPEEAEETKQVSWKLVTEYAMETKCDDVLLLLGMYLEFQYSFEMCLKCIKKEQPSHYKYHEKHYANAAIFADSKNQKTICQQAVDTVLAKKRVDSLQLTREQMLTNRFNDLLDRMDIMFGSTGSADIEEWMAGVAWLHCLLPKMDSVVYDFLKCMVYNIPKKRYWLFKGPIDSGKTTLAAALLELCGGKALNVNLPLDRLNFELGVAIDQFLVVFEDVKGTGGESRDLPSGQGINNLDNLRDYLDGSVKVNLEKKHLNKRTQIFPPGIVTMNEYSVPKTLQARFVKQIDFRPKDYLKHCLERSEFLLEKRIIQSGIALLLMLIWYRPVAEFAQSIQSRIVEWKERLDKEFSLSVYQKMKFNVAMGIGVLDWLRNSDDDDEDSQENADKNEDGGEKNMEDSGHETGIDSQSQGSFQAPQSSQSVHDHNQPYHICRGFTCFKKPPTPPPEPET
Chain of Phospholipase A2 (P04054 whole entry): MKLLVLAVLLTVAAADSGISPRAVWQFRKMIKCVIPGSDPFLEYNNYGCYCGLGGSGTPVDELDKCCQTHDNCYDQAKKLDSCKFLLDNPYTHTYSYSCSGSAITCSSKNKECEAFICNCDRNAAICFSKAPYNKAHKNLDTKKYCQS
T5 sequence (P11940 whole entry): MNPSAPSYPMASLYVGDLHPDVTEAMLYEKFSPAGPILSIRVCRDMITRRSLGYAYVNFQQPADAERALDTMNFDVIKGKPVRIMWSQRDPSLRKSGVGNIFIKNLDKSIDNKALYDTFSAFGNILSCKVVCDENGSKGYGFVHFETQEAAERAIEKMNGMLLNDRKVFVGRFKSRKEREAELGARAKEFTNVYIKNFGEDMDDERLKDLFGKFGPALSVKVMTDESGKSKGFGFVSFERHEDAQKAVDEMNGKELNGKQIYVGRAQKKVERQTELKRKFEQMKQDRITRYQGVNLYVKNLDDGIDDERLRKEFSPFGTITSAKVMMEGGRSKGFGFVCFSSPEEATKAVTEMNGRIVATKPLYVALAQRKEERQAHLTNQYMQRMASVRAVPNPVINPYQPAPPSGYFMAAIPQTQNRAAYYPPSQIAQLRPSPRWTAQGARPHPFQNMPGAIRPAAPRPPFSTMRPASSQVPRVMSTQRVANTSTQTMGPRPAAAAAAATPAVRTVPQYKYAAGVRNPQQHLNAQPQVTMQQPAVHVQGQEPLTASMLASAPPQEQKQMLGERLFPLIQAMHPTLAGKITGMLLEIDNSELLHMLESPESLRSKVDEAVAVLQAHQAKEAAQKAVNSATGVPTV

## Cc1cccc(NC(S)=NNC(=O)c2csc3c2CCCC3)c1
Cysteine protease ATG4B
  IC50: 11.2 µM (active)
Phospholipase A2
  IC50: 13.2 µM (active)
Cytochrome P450 2C9
  AC50: inconclusive
Cytochrome P450 2D6
  AC50: 25.1 µM (inconclusive)

## NC(c1csc(NC(=O)Nc2cccc(C(F)(F)F)c2)n1)C1CCCCC1 (stereo not given)
[1]
  AC50: 7.42 µM (active)
[2]
  AC50: 4.81 µM (active)
[3]
  AC50: 11.3 µM (active)

## Cc1ccc(-c2[nH]nc3c2C(c2ccc(OC(=O)N4CCOCC4)cc2)C(C#N)=C(N)O3)cc1 (stereo not given)
[4]
  AC50: 4.61 µM (active)
Cysteine protease ATG4B
  IC50: 15.8 µM (active)
Phospholipase A2
  IC50: 11.7 µM (active)
Protein RecA
  EC50: 1.18 µM (active)

## O=C1OC[C@H](Cc2ccc3c(c2)OCO3)/C1=C\c1ccc2c(c1)OCO2 [SAVININ]
[1]
  AC50: 23.1 µM (active)
[2]
  AC50: 2.66 µM (active)
[3]
  AC50: 59.8 µM (active)

## C=C1C(=O)[C@@]23[C@H](O)C[C@@H]4C(C)(C)CC[C@H](O)[C@@]4(C)[C@@H]2CC[C@@H]1[C@H]3O [KAMEBANIN]
[5]
  EC50: 1.17 µM (active)
[1]
  AC50: 4.85 µM (active)
[6]
  EC50: 1.02 µM (active)
[2]
  AC50: 1.29 µM (active)
Paired box protein Pax-8
  AC50: 1.16 µM (active)
[7]
  CC50: 5.73 µM (active)
[3]
  AC50: 26.3 µM (active)

## COc1ccc(/C=C/C(=O)Nc2nc(C)cc(C)n2)cc1OC
Cytochrome P450 2C9
  AC50: inconclusive

## O=C(c1ccc(-n2c(SCc3cccc(F)c3)nc3ccccc3c2=O)cc1)N1CCOCC1
Cysteine protease ATG4B
  IC50: 10.1 µM (active)
Phospholipase A2
  IC50: 8.49 µM (active)

## COc1cc(/C=C2\C(=O)NN(c3ccccc3)C2=O)ccc1OCC(N)=O
Large T antigen
  IC50: > 100 µM (active)

## O=C(O)Cc1ccc(/C(=N\O)c2cccs2)s1
[8]
  IC50: > 100 µM (not active)

## COc1cccc(N2C(=O)NC(=O)/C(=C\NCCN3CCOCC3)C2=O)c1
Cytochrome P450 2C9
  AC50: inconclusive

## Cc1ccc(NC(=O)CSc2nn(-c3ccccc3)c(=S)s2)cc1S(=O)(=O)N(C)C
[1]
  AC50: 55.6 µM (active)
[2]
  AC50: 5.82 µM (active)
[3]
  AC50: 45.6 µM (active)

## CCOC(=O)c1c(NC(=O)COC(=O)c2ccc(S(=O)(=O)C(F)F)cc2)sc(C(=O)N(C)C)c1C
Vero
  CC50: > 25 µM (active)

## Cn1c(=O)oc2cc(S(=O)(=O)Nc3ccc(O)cc3)ccc21
[9]
  AC50: 1.49 µM (active)
Large T antigen
  IC50: 4.64 µM (active)

## Cc1cc(=O)oc2cc(O)ccc12 [HYMECROMONE]
Cytochrome P450 2C9
  AC50: inconclusive

## Cc1nn(-c2ccccc2)c(S)c1/C=N/c1ccc([N+](=O)[O-])cc1
Large T antigen
  IC50: 25.7 µM (active)

## COc1cccc(CNc2ccc3[nH]c(O)nc3c2)c1OCc1ccccc1
Large T antigen
  IC50: 16.5 µM (active)

## CCCCOc1ccc(CN2CCC(O)CC2)cc1
Cytochrome P450 2C9
  AC50: inconclusive
Cytochrome P450 2D6
  AC50: 0.2 µM (inconclusive)

## CC(=O)c1cccc(-c2ccnc3c2CC(C(=O)Nc2ccc(F)c(Cl)c2)O3)c1 (stereo not given)
Fatty acid synthase [10]
  IC50: 7.72 µM (active)
Fatty acid synthase [11]
  IC50: 7.91 µM (active)

## O=C(COc1cccc2ccccc12)NNC(=O)c1cccs1
Cytochrome P450 2C9
  AC50: inconclusive

## COc1cc(C2C3=C(COC3=O)Oc3cc4c(cc32)OCO4)cc(OC)c1OC (stereo not given)
Vero
  CC50: < 0.05 µM (active)

## COc1cc(C(=O)N/N=C(\C)Cn2nc([N+](=O)[O-])cc2C)ccc1O
Large T antigen
  IC50: 29.3 µM (active)

## O=[N+]([O-])c1cc(CS(=O)(=O)Oc2ccc(Cl)cc2)c(O)c([N+](=O)[O-])c1
Fatty acid synthase [10]
  IC50: 16.1 µM (active)
Fatty acid synthase [11]
  IC50: 41.7 µM (inactive)

## CNc1ncnc(Sc2ccc(Cl)cc2)c1[N+](=O)[O-]
[12]
  EC50: 3.2 µM (active)
[13]
  EC50: > 60 µM (not active)
Vero
  CC50: > 25 µM (active)

## CC(C)(C)c1ccc(C(=O)C2CCCN(C(=O)c3ccccn3)C2)cc1 (stereo not given)
Cysteine protease ATG4B
  IC50: 15.1 µM (active)
Phospholipase A2
  IC50: 11.5 µM (active)

## COC(=O)N/N=C/c1cn(CCCOc2ccc(C)cc2)c2ccccc12
Cysteine protease ATG4B
  IC50: 10.3 µM (active)
Phospholipase A2
  IC50: 7.39 µM (active)

## COc1ccc(CNc2cc(-c3cccc(NS(C)(=O)=O)c3)ncn2)c(OC)c1
Cytochrome P450 2C9
  AC50: inconclusive
Cytochrome P450 2D6
  AC50: 39.8 µM (inconclusive)

## CCCCOC(=O)CNc1nnc(SCC(=O)OCC)nc1O
[4]
  AC50: 2.66 µM (active)
Fatty acid synthase [10]
  IC50: 7.5 µM (active)
[14]
  IC50: > 66 µM (inactive)
Protein RecA
  EC50: 4.56 µM (active)
[15]
  IC50: > 66 µM (inactive)
Fatty acid synthase [11]
  IC50: 9.16 µM (active)
